In patent publication US7615361B2, “Toxicity screening methods” (Ceetox, Inc., priority 2006, dated 2009):
Where two headings read alike, the source gives them in different places.

Experiments:
HUVEC = experiment: Membrane lipid peroxidation (8-isoprostane ELISA); conditions: 24 HR
Protocol: (§1) Lipid Peroxidation Measured as 8-Isoprostane (8-ISO): 8-ISO levels were determined using an ELISA. 8-ISO is a member of a family of eicosanoids produced non-enzymatically by random oxidation of tissue phospholipids by oxygen radicals. Therefore, an increase in 8-ISO is an indirect measure of increased lipid peroxidation (Vacchiano and Tempel, 1994). At the end of the exposure period, plates were either analyzed immediately or stored at −80° C. until needed for analysis. Color development, which is […] to the amount of 8-ISO present in the sample, was read on a Packard Fusion or equivalent plate reader at 415 nm.
(§2) Lipid Peroxidation Measured as 8-Isoprostane (8-ISO): Background absorbance produced from Ellman's reagent is subtracted from all wells. Non-specific binding is subtracted from the maximum binding wells to give a corrected maximum binding expressed as Bo. The percent of bound (B) relative to maximum binding capacity (Bo) for all unknown samples and for standards was determined an expressed as (% B/Bo). The % B/Bo for standards was plotted against the log of 8-ISO added to yield the final standard curve. This curve was used to convert % B/Bo to pg 8-ISO/mL of sample.
(§3) The test compound consisted of two parts mixed in a constant ratio of 5:1. The final test mixture consisted of Test mix 1 and Test mix 2, which were received as frozen solutions. The test mixture was tested in a ratio of 5:1 COMP A in five different cell types which included the following: SK-MEL28, human hepatocytes, HUVEC, C32, and NHEM cells. Cells were seeded into 96-well plates and cultured in medium containing 10% bovine serum. Following an equilibration period of 48 hr, the cells were treated with the test compound mix at concentrations of COMP A (μg/mL)=(250:50), (125:25), (25:12.5), (12.5:2.5), (2.5:1.25), (1.25:0.25), and (0.25:0.05) for 24 hr (overnight) at 37° C. in 5% CO2. […] Following an equilibration period of 4 hr, the cells were treated with the test compound mix at concentrations of COMP A (μg/mL)=(250:50), (125:25), (25:12.5), (12.5:2.5), (2.5:1.25), (1.25:0.25), and (0.25:0.05) for 24 hr (overnight) at 37° C. in 5% CO2.
(§4) Experimental Protocol: The test compounds were shipped on dry ice for testing. The compounds were stored frozen at −80° C. until needed. Dosing solutions were prepared in complete culture medium. SK-MEL28, human hepatocytes, HUVEC, C32, and NHEM cells were used as the test systems. Cells were seeded into 96-well plates and allowed to equilibrate for approximately 48 hr. Following the equilibration period the cells were exposed to the test compound mix at concentrations of COMP A (μg/mL)=(250:50), (125:25), (25:12.5), (12.5:2.5), (2.5:1.25), (1.25:0.25), and (0.25:0.05). Solubility was determined by Nephalometry techniques immediately after dosing and prior to harvesting the cells at 24 hr. Following the exposure period, the cells or their supernatant (culture medium) were analyzed for changes in cell proliferation, membrane leakage, mitochondrial function, oxidative stress, and apoptosis. The resultant exposure concentration response curves were graphed and analyzed for determining the concentration that produced a half maximal response or TC50.

human hepatocytes = experiment: Membrane lipid peroxidation (8-isoprostane ELISA); conditions: 24 HR
Protocol: as §1, §2, §3, §4

C32 cells [1] = experiment: Membrane lipid peroxidation (8-isoprostane ELISA); conditions: C32, 24 HR
Protocol: as §1, §2, §3, §4

NHEM cells = experiment: Membrane lipid peroxidation (8-isoprostane ELISA); conditions: 24 HR
Protocol: as §1, §2, §3, §4

C32 cells [2] = experiment: Predicted Ctox from Tox-Panel; assay type: cell-based, human; conditions: C32, 24 HR
Protocol: Studies such as these indicate that a preferred concentration for setting Ctox is the highest concentration at which there is no observed effect on any of the indicators being measured in the cluster analysis, especially a 24-hour cluster analysis. […] It will be apparent that 24 hour assays are more time-effective, and consequently, the 24 hour NOEL/Ctox represents a preferred data point to select as Ctox in a CATS assay. It will also be apparent that, with further time studies, it may be possible to select an equally suitable Ctox at other CATS assay time points (e.g., between 24 and 72 hours, or less than 24 hours).
In certain embodiments, the predicting comprises performing concentration response analyses of measurements from at least three separate assays that are employed in the cluster analysis. For example, in the cell health cluster, such predicting will involve monitoring the concentration response effect of the compound on a first health indicator which monitors cellular replication, a second cell health indicator which monitors mitochondrial function, and a third cell health indicator which monitors membrane integrity. Of course, it is understood that fourth, fifth, sixth or more cell health indicators also may be employed. From these concentration response analyses, the highest concentration of the chemical compound at which a measurable toxic effect of the chemical compound is not observable, i.e. NOEL, is determined and the Ctox is identified as the concentration that correlates to the NOEL. In choosing the concentrations of the compound for analysis, one of skill in the art should devise a dose response regimen which is selected to provide an indication of cell health at concentrations of at least two concentration values higher than the Ctox concentration.
The results are summarized in Tables 14-17 and in FIGS. 83-102. Table 14 compares the test compound TC50 values for each assay endpoint. Test compounds are rank-ordered from most to least toxic based on their TC50 values and overall shape of the response curves. The Ctox value, or estimated sustained blood concentration where toxicity would first be expected to occur in a rat 14-day repeated dose study, is also included in this table. Negative and positive controls are included with every run. Assay response is continually monitored to assure reliable results. […] Table 15 summarizes oxidative stress and apoptosis data, Table 16 summarizes the solubility data, and Table 17 provides information on interaction with PgP.
The Ctox value was developed using 24 hr in vitro (H4IIE) toxicity data and was validated by retrospectively evaluating compounds across different classes of drugs in 14-day rat studies in which compounds were administered on a daily basis and pharmacokinetic data was available. […] Thus, Ctox values are only determined for the 24 hr in vitro results. In this example, Ctox values could not be estimated due to low toxicity in most of the cell lines.

MTT reduction = assay type: cell-based; conditions: read-out: MTT TC50
Protocol: Tetrazolium Dye Reduction: 3-[4,5-dimethylthiazol-2-yl]
Dosing solutions were prepared in complete culture medium.

Structure (SMILES)	Membrane Lipid Peroxidation (HUVEC)	Membrane Lipid Peroxidation (human hepatocytes)	Membrane Lipid Peroxidation (C32 cells [1])	Membrane Lipid Peroxidation (NHEM cells)	Predicted Ctox (C32 cells [2]) [µM]	CC50 at 24 h (MTT reduction; human, C32 cells, C32, 24 HR) [µM]	CC50 at 24 h (MTT reduction; human, HUVEC) [µM]	CC50 at 24 h (MTT reduction; human hepatocytes) [µM]
CC[C@@]1(O)C(=O)OCc2c1cc1n(c2=O)Cc2cc3ccccc3nc2-1 [CAMPTOTHECIN, Camptothecin]	2 (2 = Concentration related increase with maximum values ≧15 pg/mL)	1 (1 = Modest increase with maximum values ≦15 pg/mL)	0	1 (1 = Modest increase with maximum values ≦15 pg/mL)	0.1	213	41	
C=C(C)[C@H]1Cc2c(ccc3c2O[C@@H]2COc4cc(OC)c(OC)cc4[C@@H]2C3=O)O1 [ROTENONE, Rotenone]	1 (1 = Modest increase with maximum values ≦15 pg/mL)	0	0	2 (2 = Concentration related increase with maximum values ≧15 pg/mL)				3
